Results on 13 compounds are retold here after US20120309087A1, “CANCER THERAPY” (University Court of The University of Dundee, priority 2006, published 2012).

Where two headings read alike, the source gives them in different places.

Assay [1] has as its system ARE-driven luciferase activity in AREc32 cells. Nature of the assay: Induction of ARE-driven luciferase activity in stable AREc32 reporter cells. The class given is cell-based, human. The conditions noted are these: for CD, concentration of inducting agent that doubled luciferase reporter activity: DMSO set at 1. A general note: A reporter such as luciferase makes a cellular process visible.

Assay [2] relates to AKR1C and NQO1 protein in MCF7 cells. The assay can be described thus: AKR1C and NQO1 protein in MCF7 cells (Western blots). The conditions noted are these: sulforaphane 5 μM + retinoid 0.5 μM, 24 hrs. The class given is cell-based, human. The method, then:
Method: AREc32 cells were seeded out in 96 well plates and treated with DMSO (control), tBHQ (50 μM), tBHQ+BTB09463 (5 μM) or tBHQ+Retinoic acid (1 μM). After 24 hours incubation, cells were washed and lysed before measuring luciferase activity. BTB09463 is 1-{4-[(3,4-dichlorobenzyl)oxy]phenyl}ethan-1-one. […] Method: AREc32 cells were seeded out in 96 well plates and dosed with BTB09463 (2.5, 5 or 10 μM) for 0, 24 or 48 hrs before treatment with tBHQ (50 μM). 24 hours after the addition of tBHQ, cells were washed and lysed before measuring luciferase activity. […] Method: ARE c32 cells were seeded out in 96 well plates and treated with DMSO (control), tBHQ (50 μM), tBHQ+retinoid (0.25, 0.5 and 1 μM). After 24 hours incubation, cells were washed and lysed before measuring luciferase activity. […] See FIG. 16 Method: A. Caco-2 cells were treated with the known ARE-gene inducer sulforaphane (5 μM), either alone or concomitantly with BTB09463 (5 μM) or Retinoic acid (1 μM). After 24 hrs, cell lysates were prepared and Western blotting performed to measure the levels of AKR1C protein. B. MCF7 cells were treated with sulforaphane (5 μM), either alone or concomitantly with BTB09463 (5 μM). After 24 hrs, cell lysates were prepared and Western blots performed to detect the levels of AKR1C and NQO1; GAPDH was used as a loading control in MCF7 cells. […] Method: Caco-2 cells were treated with DMSO (control), BTB09463 (5 μM), sulforaphane (5 μM) or a combination of sulforaphane plus BTB09463. After 24 hrs treatment, cells were harvested and RNA isolated. cDNA for each sample was generated by reverse transcription and subsequently used in real time PCR analysis of gene transcription (TaqMan analysis) for the ARE-driven genes AKR1C1 and NQO1. Data was normalised to the internal control 18S RNA and the relative levels of AKR1C1 and NQO1 calculated using the comparative CT method. […] Method: MCF7 cells were treated with the known ARE-gene inducer sulforaphane (5 μM), either alone or with various retinoids (0.5 μM). After 24 hrs, cell lysates were prepared and Western blots were performed to detect the levels of AKR1C protein present. […] See FIG. 19 Method: ARE reporter cell line AREc23 was seeded into 96 well plates and treated with a previously determined non-toxic concentration of cytotoxic drug. After 24 hours incubation, cells were washed and lysed before measuring luciferase activity. […] See FIG. 20a Method: ARE reporter cell line AREc23 was seeded into 96 well plates and treated with DMSO (control), Carmustine (100 μM), Carmustine+BTB09463 (5 μM) or Carmustine+Retinoic acid (5 μM) After 24 hours incubation, cells were washed and lysed before measuring luciferase activity. […] After 24 hours incubation, cells were washed and lysed before measuring luciferase activity. B. Modified repeat of experiment A, with cells being pretreated with L-buthionine-(SR)-sulfoximine (BSO), an inhibitor of enzymes in the glutathione synthesis pathway. After 24 hours incubation, cells were washed and lysed before measuring luciferase activity. […] Method: Caco-2 cells were treated for 24 hrs with DMSO (control), Carmustine (100 μM), Carmustine+BTB09463 (5 μM). After 24 hrs, cell lysates were prepared and Western blots to detect the levels of AKR1C. […] Method: MCF7 cells were treated for 24 hrs with DMSO (control; Lane 1), Sulforaphane (5 μM) (Lane 2), Carmustine (100 μM) (Lane 3), Carmustine+BTB09463 (5 μM) (Lane 5). (Lane 4 represents experimental conditions irrelevant to the application). After 24 hrs, cell lysates were prepared and Western blots to detect the levels of Nrf2, NQO1 and AKR1C proteins.

The next assay concerns MCF7 cells. The assay can be described thus: cells. The conditions noted are these: 72 hrs. The class given is cell-based.
For assay [3], the system named is AKR1C mRNA in AREc32 cells. The assay can be described thus: AKR1C mRNA in AREc32 cells (TaqMan). The conditions noted are these: without pre-treatment with BSO; 24 h. A general note: Real-time PCR tracks product formation cycle by cycle.
[4] abbreviates: AREc32, 24 h, grouping of drugs by effect on luciferase activity.

Turning to `CCOc1ccc2ccc(=O)oc2c1` [7-ethoxycoumarin], in assay [1] (AREc32, 24 h), the “CD, concentration of inducting agent that doubled luciferase reporter activity” value (“CD, concentration” for short) was found to be 100 µM.

Take `COc1cc(C)c(/C=C/C(C)=C/C=C/C(C)=C/C(=O)O)c(C)c1C` [Acitretin]: the “sulforaphane-induced AKR1C protein” value in assay [2] is on record as “reduced the expression of sulforaphane-induced AKR1C”. The “synergy with Bleomycin (cell killing, isobologram)” value in the assay on MCF7 cells was “very potent, synergistic increase in cell killing”.

In the case of `C=CC=O` [Acrolein], in assay [1] (10 μM acrolein), the “increase in luciferase activity” value is reported as 27 fold. Moreover, the “CD, concentration” value in assay [1] (AREc32, 24 h) was found to be 2 µM. Further, in assay [1] (setting [4]), the Type of modulation entry is recorded as “Strong inducer”.

For the compound `COc1ccc(O)c(C(C)(C)C)c1` [BHA], in assay [1] (AREc32, 24 h), the “CD, concentration” value amounted to 20 µM.

Take `O=C(O)CCCc1ccc(N(CCCl)CCCl)cc1` [Chlorambucil]: the “effect on luciferase activity in AREc32 cells (in words)” value (from here on “effect on luciferase activity”) in assay [1] (24 h, sub-lethal doses, no BSO) is “weak inducers”. The Type of modulation result in assay [1] (setting [4]) is “Weak inducers”. Moreover, the “mRNA level of AKR1C (in words)” value in assay [3] was “only slightly increased”.

As for `N.N.[Cl][Pt][Cl]` [Cisplatin], the “induction of luciferase activity after BSO pre-treatment” value in assay [1] (50 μM BSO 24 h, then 10 μM cisplatin, 20 μM melphalan, 100 μM BCNU or 100 μM chlorambucil 24 h) amounted to 3 fold. Besides, in assay [1] (setting [4]), the Type of modulation entry was “Weak inducers”. Further, the “mRNA level of AKR1C (in words)” value in assay [3] is listed as “only slightly increased”.

Consider `O=P1(N(CCCl)CCCl)NCCCO1` (centres unmarked) [Cyclophosphamide], for which, in assay [1], the Type of modulation result is recorded as “Inactive” and the “effect on luciferase activity” value is given as “did not have any effect”.

For the compound `COc1cccc2c1C(=O)c1c(O)c3c(c(O)c1C2=O)C[C@@](O)(C(=O)CO)C[C@@H]3O[C@H]1C[C@H](N)[C@H](O)[C@H](C)O1` [Doxorubicin], the “effect on luciferase activity” value in assay [1] (24 h, sub-lethal doses, no BSO) was “no effect”. In assay [1] (setting [4]), the Type of modulation result is recorded as “Inactive”.

With `COc1cccc2c1C(=O)c1c(O)c3c(c(O)c1C2=O)C[C@@](O)(C(=O)CO)C[C@@H]3O[C@H]1C[C@H](N)[C@@H](O)[C@H](C)O1` [Epirubicin], the “effect on luciferase activity” value in assay [1] (24 h, sub-lethal doses, no BSO) is given as “no effect”. Besides, in assay [1] (setting [4]), the Type of modulation result is listed as “Inactive”.

On to `CCOc1ccc2c(c1)C(C)=CC(C)(C)N2` [Ethoxyquin], for which the “CD, concentration” value in assay [1] (AREc32, 24 h) came out at 5 µM.

Turning to `COc1cc([C@@H]2c3cc4c(cc3[C@@H](O[C@@H]3O[C@@H]5CO[C@@H](C)O[C@H]5[C@H](O)[C@H]3O)[C@H]3COC(=O)[C@H]23)OCO4)cc(OC)c1O` [Etopside, etoposide], the “effect of BSO pre-treatment on luciferase activity” value in assay [1] (50 μM BSO 24 h before drug, data not shown) was “did not change luciferase activity significantly”. The “effect on luciferase activity” value in assay [1] (24 h, sub-lethal doses, no BSO) is “modestly increased”. Besides, in assay [1] (AREc32, 24 h, concentration of each drug given in column Conc., mean ± S.D.), the “Fold increase (luciferase activity relative to control value)” value is 1.3 ± 0.07. Besides, the Type of modulation entry in assay [1] (setting [4]) is on record as “Weak inducers”.

Regarding `OO` [H2O2], the “CD, concentration” value in assay [1] (AREc32, 24 h) worked out at 300 µM.

On to `OCc1c[nH]c2ccccc12` [I3C], for which the “CD, concentration” value in assay [1] (AREc32, 24 h) was 20 µM.
